The values below come from patent US9018176B2, “Inducers of hematopoiesis and fetal globin production for treatment of cytopenias and hemoglobin disorders” (priority 2010, dated 2015).

Series [1] concerns γ-globin. Description: Fetal globin (γ-globin mRNA, HbF) induction in phlebotomized anemic baboons. Format: in vivo, baboons (Papio hamadryas anubis).
The subject of a further series is CB BFU-E cells. Nature of the series: CB BFU-E cell proliferation (cells/colony). The conditions noted are these: FIG. 8. The protocol: Fetal globin-inducing activity in human erythroid progenitors was assessed. Human erythroid progenitors were cultured from peripheral blood samples, exposed to the test compounds at varying concentrations and for varying durations and analyzed for globin chain mRNA ratios. Erythroid progenitors were cultured from cord blood CD34+ cells. Briefly, CD34+ cells in the human cord blood were separated using a Ficoll-paque density gradient. CD34+ cells were cultured in H4230 medium containing 2 mM L-glutamine, 1% Methylcellulose in Iscove's Medium, 30% Fetal Bovine Serum, 1% Bovine Serum Albumin and 10^-4 M β-mercaptoethanol. Methylcellulose H4230 medium was supplemented with EPO (0.5 U/ml) and IL-3 (20 ng/ml) to support BFU-e growth. Cells were cultured in […] mini-dishes and incubated in a humidified atmosphere containing 5% CO2, at 37° C. Different concentrations of the test compounds were added at the time the cultures were established. Each compound was tested in three different cultures. BFU-e colonies grown in mini-dishes were counted on day 14 and harvested for mRNA analysis.

In series [2] the test system is γ-globin. Nature of the series: Fetal globin (γ-globin mRNA, HbF) induction in phlebotomized anemic baboons. Format: in vivo, baboons (Papio hamadryas anubis). The conditions noted are these: for increase of fetal hemoglobin (HbF) protein levels above levels produced by erythroid stress alone: Desloratidine 0.6 mg/kg orally. The protocol:
(§1) Studies to evaluate pharmacokinetic properties and γ-globin induction were performed in juvenile baboons (Papio hamadryas anubis). Briefly, animals were chronically phlebotomized on a daily basis to achieve stable anemia, maintaining a total hemoglobin level of 7.0 to 7.5 g/dl. Candidate compounds were administered intravenously or orally once daily in single doses for pharmacokinetic studies, or once daily in single doses, 4-5 days per week for 4-5 weeks, for pharmacodynamic studies. […] Levels of γ-globin mRNA expression and globin chain synthesis were assessed in baboons before and during treatment with test compounds. A washout period between administrations of different compounds in the same baboon was provided.
(§2) Chronically catheterized baboons were phlebotomized daily to create chronic anemia with total hemoglobin levels (Hb) between 7.0 to 7.5 g/dl which simulates the expanded erythropoiesis and anemia in sickle cell disease and beta thalassemia. Blood counts were drawn and total Hb (hemoglobin) and reticulocytes were analyzed on a hemavet analyzer. Fetal globin mRNA was analyzed by RT-PCR and proportions for f-cells were analyzed by flow cytometry. […] Desloratidine (0.6 mg/kg) was administered for 4 days following a washout period. Blood counts were obtained at least 3 days/week.
Baboons HL-25 and HD50 were phlebotomized daily to create anemia with erythroid expansion. When stably anemic, Desloratidine (0.6 mg/kg) was administered orally, fetal hemoglobin (HbF) protein levels were assayed.

Series [3] has as its system γ-globin mRNA. Nature of the series: γ-globin mRNA in cultured primary human erythroid progenitors (BFU-e), real-time PCR. To be noted: for fetal globin mRNA, Mean: vs untreated control cultures from the same subject. Type of series: cell-based. (Real-time PCR tracks product formation cycle by cycle.)
The subject of another series is red blood cells. Description: Adult human subject with alpha thalassemia trait given desloratidine. Type of series: in vivo. The conditions noted are these: 5 mg/day once per day, within 4 weeks. The protocol: Desloratidine was administered to an adult human subject with alpha thalassemia trait at a standard allergy treatment dose of 5 mg/day total, once per day. […] This is an unexpected and rapid rise in red blood cell levels in a mildly anemic subject. Accordingly, the inventors have discovered that desloratidine can be used to increase red blood cells in a subject at a dose of […] in order to increase the red blood levels in a subject in need of treatment. In some embodiments, the subject who is administered desloratidine is selected to have a low red blood count, or is anaemic or has a cytopenia as disclosed herein.

For series [4], the system named is red blood cell production. Nature of the series: Total hemoglobin and hematocrit in phlebotomized anemic baboons. Format: in vivo, baboons (Papio hamadryas anubis). The conditions noted are these: FIG. 12B; MS-275 3 mg/m^2 for 4 days and 2 weeks vs ST20 2 and 4 days; desloratadine 0.6 mg/kg for two days. How it is done: as §1, §2
Baboon 1509 (weight 10.9 kg) was phlebotomized to induce anemia and marrow expansion, similar to the hemoglobin disorders.

Series [5] relates to γ-globin mRNA. Nature of the series: γ-globin mRNA in cultured primary human erythroid progenitors (BFU-e), real-time PCR. Format: cell-based. The protocol:
Erythroid progenitors were cultured from cord blood CD34+ cells. […] Each compound was tested in three different cultures. […] On day 14, RNA was extracted from cultured erythroid cells, and relative quantification PCR was performed. Briefly, cDNA was generated from equal amounts of total RNA extracted using The PerfectPure RNA Purification Kit (5 Prime Inc Gaithersburg, Md.). Real-time PCR was performed using an ABI 7500 Real-Time PCR system (Applied Biosystems, Foster City, Calif.). Levels of globin mRNA were calculated by the ΔΔCt method. […] GAPDH levels were used for standardization. Western blotting Nuclear extract of K562 cells and 14-day-old BFU-e were analyzed by electrophoresis using 5-24% gradient SDS-polyacrylamide mini-gels (BIORAD Laboratories. Hercules Calif.). Proteins in the gels were transferred to Immobilon-P membranes. Blots were then incubated with BCL11A polyclonal (Novus Biologicals, Littleton Co) or mouse monoclonal (Santa Cruz Biotechnology, Santa Cruz Calif.) antibodies, after washing blots were incubated with anti-rabbit IgG-horseradish peroxidase secondary antibody (ECL, Little Chalfont Buckinghamshire UK). BCL11A bands were detected on the X-ray film using Western Lightning Reagents (Perking Elmer Inc, Waltham, Mass.).

In series [6] the test system is γ-globin mRNA. Nature of the series: γ-globin mRNA gene expression in K562 cells. Format: cell-based. The conditions noted are these: FIGS. 4A and 4B, K562 cells; Resveratrol 30 μM, desloratadine 50 μM, NSC 50 μM, Benserazine 5 μM.
In series [7] the test system is γ-globin reporter cell line. Nature of the series: Cytotoxicity counter screen run simultaneously with the HTS. Format: cell-based, human. The conditions noted are these: simultaneous counter screen of the HTS.
Another series relates to γ-globin gene promoter. Nature of the series: High throughput screen: LCR-HS2 γ-globin gene promoter EGFP reporter cell assay. Type of series: cell-based, human. The conditions noted are these: pilot screen plate, fold increase relative to NC (negative control). From the text: FIG. 1B is a schematic illustration showing an illustration of the method of the high throughput screening assay (HTS) with the cell construct comprising a locus control region (LCR) linked to the y-globin gene promoter and enhanced GFP (EGFP). A compound which activates γ-globin promoter will induce gene expression of EGFP which can be detected by a suitable detector.
A human cell-based assay which was previously used in low throughput assays, utilizing a 1.4-kilobase (kb) KpnI-BglII fragment of the HS2 of the locus control region (LCR) linked to the γ-globin gene promoter and the enhanced green fluorescent protein (EGFP) reporter gene, was adapted for high throughput screening and employed as the primary screen (FIG. 1A). Cytotoxic activity was assayed in a simultaneous counter screen. […] Several hits were immediately eliminated from further development as potential hemoglobinopathy therapeutics because of cytotoxicity (e.g., Idarubicin) or undesirable off-target effects, but nonetheless validated the HTS itself and were validated in secondary confirmatory assays as highly-potent HbF-inducers. […]

In series [8] the test system is γ-globin. To be noted: in humans, about 3-fold less than in baboons; cited from earlier work.
Where [9] appears, read: Desloratadine 3 uM, Cord Blood progenitors.
The mark [10] stands for this setting: Desloratadine 3 uM, Hemoglobin disorder progenitors.

“And” between values parts separate entries of the source, which are not always exact repeats. Equal entries are not always repeated. Where two headings read alike, the source gives them in different places.

Take `Clc1ccc2c(c1)CCc1cccnc1C2=C1CCNCC1` [Desloratadine, 8-Chloro-6,11-dihydro-11-(4-piperidinylidene)-5H-benzo[5,6]cyclohepta[1,2-b]pyridine]: the “Increase in γ-globin mRNA above baseline” value stood at 350% in the series with γ-globin [1] (Baboon HD50, Desloratadine oral 0.55 mg/kg); 350% in the series with γ-globin [1] (Baboon HD50, Desloratadine oral 0.55 mg/kg, listed as Desloratidine); 386% with γ-globin [1] (Baboon HL25, Desloratadine oral 0.55 mg/kg); 386% in the series on γ-globin [1] (Baboon HL25, Desloratadine oral 0.55 mg/kg, listed as Desloratidine). Also, the “number of blood cells per colony” value with CB BFU-E cells was “increase the number of blood cells per colony”. Besides, the “increase of fetal hemoglobin (HbF) protein levels above levels produced by erythroid stress alone” value with γ-globin [2] (Baboon HD50) is 170%; with γ-globin [2] (Baboon HL25) it was 193%. For the same compound, the “fetal globin mRNA” value in the series with γ-globin [2] (Benserazide 1 or 3 mg/kg in baboon 1509, MS-275 and desloratidine) is “induced”. The “γ-globin mRNA expression in blood compared with positive control ST20 (150 mg/kg)” value in the series on γ-globin [2] (FIG. 12A, MS-275 3 mg/m^2 for 4 days and 2 weeks, desloratadine 0.6 mg/kg for two days vs ST20 after 2 or 4 days) is listed as “more effective”. In the series with γ-globin [2] (desloratidine, same baboon as ST-20), the “time of treatment to detected fetal globin induction and increased HbF” value was not above 4 days. Moreover, the “responses (cultures with induced fetal globin mRNA)” value is reported as 4/4 responses in the series with γ-globin mRNA [3] (setting [9]); 3/3 responses in the series with γ-globin mRNA [3] (setting [10]); 1 response in the series on γ-globin mRNA [3] (Desloratadine 3 uM, Normal progenitors). The “fetal globin mRNA, Mean” value with γ-globin mRNA [3] (setting [9]) is listed as 323 % of control; with γ-globin mRNA [3] (setting [10]), 175 % of control; in the series on γ-globin mRNA [3] (Desloratadine 3 uM, Normal progenitors (ABM), 1 response), 1098 % of control. In addition, the “fetal globin mRNA, single subjects” value in the series on γ-globin mRNA [3] (Desloratadine 3 uM, Hemoglobin disorder progenitors (subjects)) is 121 % of control and 123 % of control and 274.2 % of control. In addition, the “γ-globin mRNA induction” value in the series on γ-globin mRNA [3] (cultured primary human erythroid progenitors, concentrations pharmacologically achievable in humans) was “up to 6 fold”. Also, the Hemoglobin after treatment in the series with red blood cells (increased from 10) is on record as 11.5 g/gl. This compound also showed a hematocrit after treatment in the series with red blood cells (increased from 30%) of 35%. In addition, the “blood total hemoglobin (Hb) levels compared with positive control ST20 (150 mg/kg)” value in [4] is “significantly more effective”. Further, the “% induction of γ-globin mRNA gene expression” value is given as “most significant % increase” with γ-globin mRNA [5] (FIG. 4C, HFU-E (burst-forming units-erythroid) cells, Resveratrol 30 μM, desloratadine 50 μM, NSC 50 μM, Benserazine 5 μM) and “most significant % increase” in the series on γ-globin mRNA [6]. For the same compound, the “effect in increasing % of γ-globin mRNA expression” value in the series with γ-globin mRNA [5] (FIG. 6, BFU-e cells, Desloratadine 3 μM, Benserazide 3 μM, NSC5397 0.6 μM) was “greatest effect”.

`CC(=O)[C@]1(O)Cc2c(O)c3c(c(O)c2[C@@H](O[C@H]2C[C@H](N)[C@H](O)[C@H](C)O2)C1)C(=O)c1ccccc1C3=O` [Idarubicin, idarubicin]: the “cytotoxicity (reason for elimination from further development)” value in [7] is on record as “cytotoxicity”. The “fold induction of the γ-globin promoter” value with γ-globin gene promoter is 8 fold.

Turning to `CCC(C)(C)C(=O)[O-].[Na+]` [ST20, sodium 2,2-dimethylbutyrate], the “Increase in γ-globin mRNA above baseline” value in the series with γ-globin [2] (Baboon HD50, ST20 oral 150 mg/kg) amounted to 310%. Besides, in the series with γ-globin [2] (ST-20, same baboon as desloratidine), the “time of treatment after which fetal globin (HbF) mRNA increased” value was 2 weeks. Moreover, the results for the “dose required to increase HbF expression” value in the series with γ-globin [2] (in baboons) and with γ-globin [8] were 50 to 150 mg/kg and 20 to 50 mg/kg, respectively.
